The source of these data is PMC3170264 (Retrovirology, 2011).

SMILES strings stand for the structures. Substitutions are numbered along the chain they refer to. pIC50: −log10 of the molar value. Bounds are passed on as bounds.

As a reminder, the pIC50 is the IC50 on a negative log10 scale, so that one unit is a factor of ten.

The target in assay [1] is T1, HIV-2 N2 IN (Human immunodeficiency virus type 2 subtype B, UniProt Q89928, I1301V/I1428V/M1455R/N1185G/N1438H/R1202K/R1392Q/T1348A/T1383N/V1343I/V1460M).
T1 construct: His-tag (pET-15b) (N); made in house; host or cells: Escherichia coli BL21-CodonPlus (DE3)-RIPL
T1 sequence (Q89928 1169-1464 N1185G/R1202K/I1301V/V1343I/T1348A/T1383N/R1392Q/I1428V/N1438H/M1455R/V1460M limits assumed): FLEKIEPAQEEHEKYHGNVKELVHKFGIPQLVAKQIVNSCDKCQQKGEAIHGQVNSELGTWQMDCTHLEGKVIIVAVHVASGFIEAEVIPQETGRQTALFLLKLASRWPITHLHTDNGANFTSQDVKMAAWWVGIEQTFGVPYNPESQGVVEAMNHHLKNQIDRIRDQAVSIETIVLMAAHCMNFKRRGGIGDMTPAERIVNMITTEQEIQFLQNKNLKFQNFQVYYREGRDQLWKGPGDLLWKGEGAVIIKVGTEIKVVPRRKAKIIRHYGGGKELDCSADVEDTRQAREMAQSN
Briefly: strand transfer inhibition, IN from clinical isolate N2. Conditions: IN from RAL-naive patient N2; 200 nM IN; 37°C; Mg2+. Type of assay: biochemical. On the procedure: The ST reaction was performed using a ^32P-labeled oligonucleotide mimicking the preprocessed substrate. Drug concentrations are indicated above each lane. […] Activity is expressed as a % of control without drug. Experiments were repeated two times.
(§1) The HIV-2 ODN substrate sequences were: UA: 5'-[…]-3'; U5B: 5'-[…]-3'; U5B-2: 5'-[…] […]-3'.

Assay [2] concerns HIV-2 IN E92A/T97A/N155H (T1). As to the kind of experiment: strand transfer inhibition, IN from clinical isolate T1. Type of assay: biochemical. Particulars: clinical isolate T1, N155H with substitutions at positions 92 and 97, 200 nM IN. The protocol: (§2) Activity is expressed as a % of control without drug. Experiments were performed two times.
as §1

Assay [3] has as its target T2, HIV-2 IN G140S/Q148R (T3) (Human immunodeficiency virus type 2 subtype A, UniProt P04584, A1212T/E1378D/G1311S/I1304V/I1351V/I1372T/M1463V/Q1319R/R1205K/R1395Q/S1188G/S1210T/T1231V/V1190I).
T2 construct: His-tag (pET-15b) (N); made in house; host or cells: Escherichia coli BL21-CodonPlus (DE3)-RIPL
T2 sequence (P04584 1172-1464 S1188G/V1190I/R1205K/S1210T/A1212T/T1231V/I1304V/G1311S/Q1319R/I1351V/I1372T/E1378D/R1395Q/M1463V): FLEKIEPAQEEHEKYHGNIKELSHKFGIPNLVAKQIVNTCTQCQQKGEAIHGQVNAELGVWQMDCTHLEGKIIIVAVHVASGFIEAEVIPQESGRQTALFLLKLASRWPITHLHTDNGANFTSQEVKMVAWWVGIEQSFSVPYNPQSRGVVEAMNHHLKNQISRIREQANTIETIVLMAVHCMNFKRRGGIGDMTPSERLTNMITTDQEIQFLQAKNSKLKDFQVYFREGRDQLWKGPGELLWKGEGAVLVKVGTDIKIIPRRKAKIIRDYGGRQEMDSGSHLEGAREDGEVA
Briefly: strand transfer inhibition, IN from clinical isolate T3. Type of assay: biochemical. Conditions: clinical isolate T3, G140S/Q148R double mutant; IC50 not reached at concentrations up to 1 μM. The protocol:
as §2, §1

Assay [4] addresses T3, HIV-2 IN E92Q/Y143C (Human immunodeficiency virus type 2 subtype B, UniProt Q89928, E1260Q/I1218V/I1301V/I1372V/M1455R/N1185G/N1438H/R1202K/R1392Q/T1348V/T1383A/V1460M/Y1311C).
T3 construct: His-tag (pET-15b) (N); made in house; host or cells: Escherichia coli BL21-CodonPlus (DE3)-RIPL
T3 sequence (Q89928 with tags, fused parts or gaps N1185G/R1202K/I1218V/E1260Q/I1301V/Y1311C/T1348V/I1372V/T1383A/R1392Q/N1438H/M1455R/V1460M): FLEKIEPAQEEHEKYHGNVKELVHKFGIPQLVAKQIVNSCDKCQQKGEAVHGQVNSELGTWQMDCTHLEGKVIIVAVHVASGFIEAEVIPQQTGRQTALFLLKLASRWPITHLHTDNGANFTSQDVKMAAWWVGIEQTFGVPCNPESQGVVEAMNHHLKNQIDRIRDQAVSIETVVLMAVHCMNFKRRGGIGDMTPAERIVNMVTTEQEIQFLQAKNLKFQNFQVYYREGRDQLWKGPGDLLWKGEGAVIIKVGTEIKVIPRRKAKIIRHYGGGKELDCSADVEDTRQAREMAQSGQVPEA
As to the kind of experiment: strand transfer inhibition, site-directed mutant in N1 background. Conditions: E92Q/Y143C double mutant in N1 background; 200 nM IN. The class given is biochemical. On the procedure: as §2
(§3) Primer 1: N1, N2, T1, T2, 5'-[…]-3'; N3, 5'-[…] […]-3'; T3-T7, 5'-[…]-3'. Primers 2: N1, 5'-[…]-3'; N2, 5'-[…] […]-3'; N3, 5'-[…] C-3'; T1, T2, 5'-[…]-3'; T3-T7, 5'-GGATC […] -3'.
as §1

The target in assay [5] is T4, HIV-2 IN G140S (Human immunodeficiency virus type 2 subtype B, UniProt Q89928, G1308S/I1218V/I1301V/I1372V/M1455R/N1185G/N1438H/R1202K/R1392Q/T1348V/T1383A/V1460M).
T4 construct: His-tag (pET-15b) (N); made in house; host or cells: Escherichia coli BL21-CodonPlus (DE3)-RIPL
T4 sequence (Q89928 with tags, fused parts or gaps N1185G/R1202K/I1218V/I1301V/G1308S/T1348V/I1372V/T1383A/R1392Q/N1438H/M1455R/V1460M): T3 sequence (Q89928 with tags, fused parts or gaps N1185G/R1202K/I1218V/E1260Q/I1301V/Y1311C/T1348V/I1372V/T1383A/R1392Q/N1438H/M1455R/V1460M) with Q92E, G140S, C143Y
The description is as above. The class given is biochemical. Particulars: 200 nM IN. The protocol: as §2, §3, §1

The target of assay [6] is T5, HIV-2 IN Y143C/N155H (Human immunodeficiency virus type 2 subtype B, UniProt Q89928, I1218V/I1301V/I1372V/M1455R/N1185G/N1323H/N1438H/R1202K/R1392Q/T1348V/T1383A/V1460M/Y1311C).
T5 construct: His-tag (pET-15b) (N); made in house; host or cells: Escherichia coli BL21-CodonPlus (DE3)-RIPL
T5 sequence (Q89928 with tags, fused parts or gaps N1185G/R1202K/I1218V/I1301V/Y1311C/N1323H/T1348V/I1372V/T1383A/R1392Q/N1438H/M1455R/V1460M): T3 sequence (Q89928 with tags, fused parts or gaps N1185G/R1202K/I1218V/E1260Q/I1301V/Y1311C/T1348V/I1372V/T1383A/R1392Q/N1438H/M1455R/V1460M) with Q92E, N155H
Described as above. The class given is biochemical. Conditions: Y143C/N155H double mutant in N1 background; 200 nM IN. The protocol: as §2, §3, §1

In assay [7] the test system is wild-type HIV-2. Conditions: phenotypic susceptibility similar to that of HIV-1; cited from earlier work.

For the compound `Cc1nnc(C(=O)NC(C)(C)c2nc(C(=O)NCc3ccc(F)cc3)c(O)c(=O)n2C)o1` [RAL, raltegravir], the pIC50 in assay [1] was 7.52; in assay [3], below 6.00; in assay [4], 6.43; in assay [6], 6.54. The “factor of increase of IC50 versus wild-type N1 IN” value in assay [2] is “about 50”. For the same compound, the “susceptibility to RAL, strand transfer” value in assay [5] is on record as “as susceptible to RAL as the wild-type reference N1 enzyme”. Moreover, the “activity against wild-type HIV-2” value in assay [7] is “active”.
